Columns and labels:
ROCK1 = ROCK1 (Homo sapiens (Human), UniProt Q13464); assay: ROCK assay (LABCHIP peptide phosphorylation), ROCK1; type: biochemical; settings: 5 μM ATP, 1.5 μM peptide substrate; read-out: ROCK1 IC50
ROCK2 = ROCK2 (Homo sapiens (Human), UniProt O75116); assay: ROCK assay (LABCHIP peptide phosphorylation), ROCK2; type: biochemical; settings: 5 μM ATP, 1.5 μM peptide substrate
Sequence of ROCK2 (O75116 whole entry, species assumed): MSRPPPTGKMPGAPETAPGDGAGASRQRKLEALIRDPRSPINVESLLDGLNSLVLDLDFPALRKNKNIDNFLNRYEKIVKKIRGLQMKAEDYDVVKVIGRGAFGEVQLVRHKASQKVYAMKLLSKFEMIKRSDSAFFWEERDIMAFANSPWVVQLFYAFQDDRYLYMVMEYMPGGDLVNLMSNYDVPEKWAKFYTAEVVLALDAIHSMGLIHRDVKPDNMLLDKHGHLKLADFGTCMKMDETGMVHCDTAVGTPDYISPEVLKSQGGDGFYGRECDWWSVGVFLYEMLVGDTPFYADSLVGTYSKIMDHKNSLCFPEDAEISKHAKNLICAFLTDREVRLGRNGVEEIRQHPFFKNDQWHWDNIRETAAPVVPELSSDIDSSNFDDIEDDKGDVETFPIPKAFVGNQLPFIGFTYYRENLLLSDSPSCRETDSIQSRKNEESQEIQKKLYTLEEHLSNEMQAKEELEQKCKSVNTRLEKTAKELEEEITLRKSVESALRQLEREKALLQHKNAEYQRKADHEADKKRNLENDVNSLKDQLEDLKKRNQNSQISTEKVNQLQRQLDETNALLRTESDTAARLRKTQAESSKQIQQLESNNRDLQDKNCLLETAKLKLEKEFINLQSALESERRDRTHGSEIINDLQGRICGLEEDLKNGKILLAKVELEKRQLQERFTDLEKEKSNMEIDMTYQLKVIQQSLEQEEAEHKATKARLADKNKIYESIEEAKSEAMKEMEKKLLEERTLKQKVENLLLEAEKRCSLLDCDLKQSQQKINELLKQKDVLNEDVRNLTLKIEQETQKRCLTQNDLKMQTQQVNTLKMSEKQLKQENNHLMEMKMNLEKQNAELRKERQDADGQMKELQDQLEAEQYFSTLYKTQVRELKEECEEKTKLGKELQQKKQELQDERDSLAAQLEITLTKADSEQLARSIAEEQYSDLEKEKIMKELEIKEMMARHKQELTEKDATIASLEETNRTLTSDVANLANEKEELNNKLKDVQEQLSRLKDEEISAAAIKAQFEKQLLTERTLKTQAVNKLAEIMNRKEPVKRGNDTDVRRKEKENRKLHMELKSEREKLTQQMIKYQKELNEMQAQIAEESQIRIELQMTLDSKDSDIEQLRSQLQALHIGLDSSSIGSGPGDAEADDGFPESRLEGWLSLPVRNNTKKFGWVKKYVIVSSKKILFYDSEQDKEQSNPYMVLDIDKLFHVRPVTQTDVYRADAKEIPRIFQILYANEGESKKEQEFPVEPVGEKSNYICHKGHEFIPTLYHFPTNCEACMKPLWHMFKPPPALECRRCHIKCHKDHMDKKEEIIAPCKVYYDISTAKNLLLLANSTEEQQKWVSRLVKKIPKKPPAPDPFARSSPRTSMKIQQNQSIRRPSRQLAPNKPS

Sequence of ROCK1 (Q13464 whole entry, species assumed): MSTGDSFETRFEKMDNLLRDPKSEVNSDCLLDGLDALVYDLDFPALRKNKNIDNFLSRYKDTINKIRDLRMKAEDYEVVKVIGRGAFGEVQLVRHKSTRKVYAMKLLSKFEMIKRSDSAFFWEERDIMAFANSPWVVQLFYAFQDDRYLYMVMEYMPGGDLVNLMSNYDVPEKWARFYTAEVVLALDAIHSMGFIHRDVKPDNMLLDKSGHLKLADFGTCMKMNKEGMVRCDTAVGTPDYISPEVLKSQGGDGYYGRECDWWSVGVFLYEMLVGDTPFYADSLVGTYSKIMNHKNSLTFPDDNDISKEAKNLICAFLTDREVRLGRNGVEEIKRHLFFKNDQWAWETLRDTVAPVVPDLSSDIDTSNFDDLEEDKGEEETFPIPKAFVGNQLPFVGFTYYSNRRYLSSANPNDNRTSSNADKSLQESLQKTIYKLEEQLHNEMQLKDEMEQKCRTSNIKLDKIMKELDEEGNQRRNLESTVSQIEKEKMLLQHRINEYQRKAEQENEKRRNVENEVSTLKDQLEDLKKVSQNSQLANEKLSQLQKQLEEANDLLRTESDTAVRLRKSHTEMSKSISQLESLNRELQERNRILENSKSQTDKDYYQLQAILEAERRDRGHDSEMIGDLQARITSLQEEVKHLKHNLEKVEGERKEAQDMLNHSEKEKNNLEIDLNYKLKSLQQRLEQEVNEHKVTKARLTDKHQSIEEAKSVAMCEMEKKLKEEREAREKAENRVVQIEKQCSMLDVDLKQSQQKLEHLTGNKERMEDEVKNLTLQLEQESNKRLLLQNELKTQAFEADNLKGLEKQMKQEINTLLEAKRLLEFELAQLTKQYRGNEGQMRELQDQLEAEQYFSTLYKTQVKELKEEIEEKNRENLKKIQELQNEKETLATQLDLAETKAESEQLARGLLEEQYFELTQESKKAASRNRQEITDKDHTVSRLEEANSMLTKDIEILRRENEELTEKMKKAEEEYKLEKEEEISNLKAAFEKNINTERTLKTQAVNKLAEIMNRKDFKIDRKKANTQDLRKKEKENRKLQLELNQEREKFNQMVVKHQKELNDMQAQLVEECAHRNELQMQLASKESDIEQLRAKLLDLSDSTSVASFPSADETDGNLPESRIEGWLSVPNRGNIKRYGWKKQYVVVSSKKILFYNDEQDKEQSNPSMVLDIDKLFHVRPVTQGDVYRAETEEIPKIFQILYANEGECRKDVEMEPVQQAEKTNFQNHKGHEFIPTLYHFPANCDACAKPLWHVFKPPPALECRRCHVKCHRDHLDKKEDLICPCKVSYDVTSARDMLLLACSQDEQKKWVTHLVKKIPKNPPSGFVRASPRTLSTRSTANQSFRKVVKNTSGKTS

| Compound | IC50 (ROCK1) [nM] | IC50 (ROCK2) [nM] |
| --- | --- | --- |
| COc1cccc2[nH]cc(C(=O)Nc3ccc(-c4n[nH]c(=O)c5ccccc45)cc3)c12 [Example 117, 4-methoxy-N-[4-(4-oxo-3,4-dihydrophthalazin-1-yl)phenyl]-1H-indole-3-carboxamide] | 0.1 to 100 | 0.1 to 100 |
| O=c1[nH]nc(-c2ccc(Nc3nc4ccccc4o3)cc2)c2ccccc12 [Example 75, 4-(4-(Benzo[d]oxazol-2-ylamino)phenyl)phthalazin-1(2H)-one] | 0.1 to 100 | 0.1 to 100 |
| Cc1oc2ccc(OCc3ccccc3)cc2c1C(=O)Nc1ccc(-c2n[nH]c(=O)c3ccccc23)cc1 [Example 105, 5-(benzyloxy)-2-methyl-N-[4-(4-oxo-3,4-dihydrophthalazin-1-yl)phenyl]-1-benzofuran-3-carboxamide] | 101 to 1000 | 0.1 to 100 |
| O=C(Nc1ccc(-c2n[nH]c(=O)c3ccccc23)cc1)c1nn(CCCO)c2ccccc12 [Example 164, 1-(3-hydroxypropyl)-N-[4-(4-oxo-3,4-dihydrophthalazin-1-yl)phenyl]-1H-indazole-3-carboxamide] | 0.1 to 100 | 0.1 to 100 |
| Cc1cn2cc(C(=O)Nc3ccc(-c4n[nH]c(=O)c5ccccc45)cc3)nc2cn1 [Example 121, 6-methyl-N-[4-(4-oxo-3,4-dihydrophthalazin-1-yl)phenyl]imidazo[1,2-a]pyrazine-2-carboxamide] | 101 to 1000 | 0.1 to 100 |
| O=C(Nc1ccc(-c2n[nH]c(=O)c3ccccc23)cc1)c1nn(CC2CCCO2)c2ccccc12 (stereo not drawn) [Example 148, N-[4-(4-oxo-3,4-dihydrophthalazin-1-yl)phenyl]-1-(oxolan-2-ylmethyl)-1H-indazole-3-carboxamide] | 0.1 to 100 | 0.1 to 100 |
| O=C(Oc1ccc(-c2n[nH]c(=O)c3ccccc23)cc1)N1CCC(c2ccccc2)C1 (stereo not drawn) [Example 69, 4-(4-Oxo-3,4-dihydrophthalazin-1-yl)phenyl 3-phenylpyrrolidine-1-carboxylate] | 1000 to 50000 | 101 to 1000 |
| N-[4-(4-oxo-3,4- dihydrophthalazin-1- yl)phenyl]pyrazolo[1,5- a]pyrimidine-2- carboxamide [Example 102] | 0.1 to 100 | 0.1 to 100 |
| O=C(Nc1ccc(-c2n[nH]c(=O)c3ccccc23)cc1)c1cnn2ccc(OCCN3CCCC3)cc12 [Example 183, N-[4-(4-oxo-3,4-dihydrophthalazin-1-yl)phenyl]-5-[2-(pyrrolidin-1-yl)ethoxy]pyrazolo[1,5-a]pyridine-3-carboxamide] | 0.1 to 100 | 0.1 to 100 |
| O=C(Nc1ccc(-c2n[nH]c(=O)c3ccccc23)cc1)c1nn(CC2CCOC2)c2ccc(F)cc12 (stereo not drawn) [Example 173, 5-fluoro-N-[4-(4-oxo-3,4-dihydrophthalazin-1-yl)phenyl]-1-(oxolan-3-ylmethyl)-1H-indazole-3-carboxamide] | 0.1 to 100 | 0.1 to 100 |
| Cc1csc(C(=O)Nc2ccc(-c3n[nH]c(=O)c4ccccc34)cc2)n1 [Example 50, 4-methyl-N-[4-(4-oxo-3,4-dihydrophthalazin-1-yl)phenyl]-1,3-thiazole-2-carboxamide] | 0.1 to 100 | 0.1 to 100 |
| O=C(Cc1ccc(-c2n[nH]c(=O)c3ccccc23)cc1)N1CCC(c2ccccc2)CC1 [Example 11, 4-{4-[2-oxo-2-(4-phenylpiperidin-1-yl)ethyl]phenyl}-1,2-dihydrophthalazin-1-one] | 1000 to 50000 | 101 to 1000 |
| O=C(O)Cn1nc(C(=O)Nc2ccc(-c3n[nH]c(=O)c4ccccc34)cc2)c2ccccc21 [Example 328, 2-(3-{[4-(4-Oxo-3,4-dihydrophthalazin-1-yl)phenyl]carbamoyl}-1H-indazol-1-yl)acetic Acid] | 101 to 1000 | 0.1 to 100 |
| O=C(Cc1ccc(-c2c[nH]c(=O)c3ccccc23)cc1)N1Cc2ccccc2C1 [Example 38, 4-(4-(2-(Isoindolin-2-yl)-2-oxoethyl)phenyl)isoquinolin-1(2H)-one] | 101 to 1000 | 0.1 to 100 |
| CC(C)(O)Cn1nc(C(=O)Nc2ccc(-c3n[nH]c(=O)c4ccccc34)cc2)c2cc(F)ccc21 [Example 167, 5-fluoro-1-(2-hydroxy-2-methylpropyl)-N-[4-(4-oxo-3,4-dihydrophthalazin-1-yl)phenyl]-1H-indazole-3-carboxamide] | 0.1 to 100 | 0.1 to 100 |
| Cc1cc(NC(=O)c2cnn3cc(OCCN4CCCC4)ccc23)ccc1-c1n[nH]c(=O)c2ccccc12 [Example 325, N-[3-methyl-4-(4-oxo-3,4-dihydrophthalazin-1-yl)phenyl]-6-[2-(pyrrolidin-1-yl)ethoxy] pyrazolo[1,5-a]pyridine-3-carboxamide] | 101 to 1000 | 0.1 to 100 |
| CC1(Cn2nc(C(=O)Nc3ccc(-c4n[nH]c(=O)c5ccccc45)c(Cl)c3)c3ccccc32)COC1 [Example 320, N-[3-chloro-4-(4-oxo-3,4-dihydrophthalazin-1-yl)phenyl]-1-[(3-methyloxetan-3-yl)methyl]-1H-indazole-3-carboxamide] | 0.1 to 100 | 0.1 to 100 |
| O=C(Oc1ccc(-c2n[nH]c(=O)c3ccccc23)cc1)N1Cc2ccc(F)cc2C1 [Example 71, 4-(4-Oxo-3,4-dihydrophthalazin-1-yl)phenyl 5-fluoroisoindoline-2-carboxylate] | 1000 to 50000 | 0.1 to 100 |
| COC(=O)N1CCC(Cn2nc(C(=O)Nc3ccc(-c4n[nH]c(=O)c5ccccc45)cc3)c3ccccc32)CC1 [Example 344, Methyl 4-((3-((4-(4-oxo-3,4-dihydrophthalazin-1-yl)phenyl)carbamoyl)-1H-indazol-1-yl)methyl)piperidine-1-carboxylate] | 0.1 to 100 | 0.1 to 100 |
| CCOc1ccc2c(c1)cc(C(=O)Nc1ccc(-c3n[nH]c(=O)c4ccccc34)cc1)n2C [Example 130, 5-ethoxy-1-methyl-N-[4-(4-oxo-3,4-dihydrophthalazin-1-yl)phenyl]-1H-indole-2-carboxamide] | 0.1 to 100 | 0.1 to 100 |
| O=C(Nc1ccc(-c2n[nH]c(=O)c3ccccc23)cc1)N1CC2(CCNCC2)c2ccccc21 [Example 371, N-(4-(4-Oxo-3,4-dihydrophthalazin-1-yl)phenyl)spiro[indoline-3,4′-piperidine]-1-carboxamide] | 101 to 1000 | 101 to 1000 |

Second part, the compound after the results:

| IC50 (ROCK1) [nM] | IC50 (ROCK2) [nM] | Compound |
| --- | --- | --- |
| 0.1 to 100 | 0.1 to 100 | Cc1nc(N2CCCc3ccccc32)sc1C(=O)Nc1ccc(-c2n[nH]c(=O)c3ccccc23)cc1 [Example 241, 4-methyl-N-[4-(4-oxo-3,4-dihydrophthalazin-1-yl)phenyl]-2-(1,2,3,4-tetrahydroquinolin-1-yl)-1,3-thiazole-5-carboxamide] |
| 0.1 to 100 | 0.1 to 100 | O=C(Nc1ccc(-c2c[nH]c(=O)c3ccccc23)cc1)c1ccc(N2CCCCC2)cc1 [Example 249, N-(4-(1-Oxo-1,2-dihydroisoquinolin-4-yl)phenyl)-4-(piperidin-1-yl)benzamide] |
| 101 to 1000 | 0.1 to 100 | CCOc1ccc2c(c1)N(C(=O)Cc1ccc(-c3c[nH]c(=O)c4ccccc34)cc1)CC2 [Example 254, 4-(4-(2-(6-Ethoxyindolin-1-yl)-2-oxoethyl)phenyl)isoquinolin-1(2H)-one] |
| 101 to 1000 | 0.1 to 100 | CCn1ccc(C(=O)Nc2ccc(-c3n[nH]c(=O)c4ccccc34)cc2)n1 [Example 204, 1-ethyl-N-[4-(4-oxo-3,4-dihydrophthalazin-1-yl)phenyl]-1H-pyrazole-3-carboxamide] |
| 0.1 to 100 | 0.1 to 100 | Cn1nc(C(=O)Nc2ccc(-c3n[nH]c(=O)c4ccccc34)cc2)cc1-c1ccccc1 [Example 207, 1-methyl-N-[4-(4-oxo-3,4-dihydrophthalazin-1-yl)phenyl]-5-phenyl-1H-pyrazole-3-carboxamide] |
| 0.1 to 100 | 0.1 to 100 | Cc1cc(NC(=O)c2c[nH]c3ncc(F)cc23)ccc1-c1n[nH]c(=O)c2ccccc12 [Example 308, 5-fluoro-N-[3-methyl-4-(4-oxo-3,4-dihydrophthalazin-1-yl)phenyl]-1H-pyrrolo [2,3-b]pyridine-3-carboxamide] |
| 101 to 1000 | 101 to 1000 | O=C(Nc1ccc(-c2n[nH]c(=O)c3ccccc23)cc1)C1CCN(c2ccccc2)C1=O (stereo not drawn) [Example 215, 2-oxo-N-[4-(4-oxo-3,4-dihydrophthalazin-1-yl)phenyl]-1-phenylpyrrolidine-3-carboxamide] |
| 101 to 1000 | 0.1 to 100 | CN1CC[C@@H](Oc2ccc3c(c2)N(C(=O)Cc2ccc(-c4n[nH]c(=O)c5ccccc45)cc2)CC3)C1 [Example 277, 4-{4-[2-(6-{[(3R)-1-methylpyrrolidin-3-yl]oxy}-2,3-dihydro-1H-indol-1-yl)-2-oxoethyl]phenyl}-1,2-dihydrophthalazin-1-one] |
| 0.1 to 100 | 0.1 to 100 | Cc1c(C(=O)Nc2ccc(-c3n[nH]c(=O)c4ccccc34)cc2)cnn1-c1ccccc1 [Example 189, 5-methyl-N-[4-(4-oxo-3,4-dihydrophthalazin-1-yl)phenyl]-1-phenyl-1H-pyrazole-4-carboxamide] |
| 1000 to 50000 | 0.1 to 100 | O=C(Nc1ccc(-c2n[nH]c(=O)c3ccccc23)c(CO)c1)c1cnn2ccccc12 [Example 362, N-(3-(Hydroxymethyl)-4-(4-oxo-3,4-dihydrophthalazin-1-yl)phenyl)pyrazolo[1,5-a]pyridine-3-carboxamide] |
| 0.1 to 100 | 0.1 to 100 | Cc1c(C(=O)Nc2ccc(-c3n[nH]c(=O)c4ccccc34)cc2)cnn1-c1cccc(Cl)c1F [Example 202, 1-(3-chloro-2-fluorophenyl)-5-methyl-N-[4-(4-oxo-3,4-dihydrophthalazin-1-yl)phenyl]-1H-pyrazole-4-carboxamide] |
| 101 to 1000 | 0.1 to 100 | Cc1c(C(=O)Nc2ccc(-c3n[nH]c(=O)c4ccccc34)cc2)nnn1-c1cccc(C(F)(F)F)c1 [Example 232, 5-methyl-N-[4-(4-oxo-3,4-dihydrophthalazin-1-yl)phenyl]-1-[3-(trifluoromethyl)phenyl]-1H-1,2,3-triazole-4-carboxamide] |

Reference: US9926282B2, “Phthalazinones and isoquinolinones as rock inhibitors” (BRISTOL-MYERS SQUIBB COMPANY, priority 2013, dated 2018)
